IC50 data for 14 compounds are collected here from ChEMBL document CHEMBL1144280, “Inhibitors of type I MetAPs containing pyridine-2-carboxylic acid thiazol-2-ylamide. Part 1: SAR studies on the determination of the key scaffold” (Bioorg Med Chem Lett, 2005).

pIC50: −log10 of the molar value.

Test [1] addresses T1, Methionine aminopeptidase (Escherichia coli K-12, UniProt P0AE18).
T1 sequence (P0AE18 whole entry): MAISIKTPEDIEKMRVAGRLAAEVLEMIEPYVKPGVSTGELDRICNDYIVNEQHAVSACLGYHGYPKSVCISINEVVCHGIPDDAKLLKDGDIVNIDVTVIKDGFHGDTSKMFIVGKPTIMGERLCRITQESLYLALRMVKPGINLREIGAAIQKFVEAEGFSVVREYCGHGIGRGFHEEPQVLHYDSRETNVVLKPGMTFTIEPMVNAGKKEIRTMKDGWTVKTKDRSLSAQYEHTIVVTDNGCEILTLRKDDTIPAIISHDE
Description: Inhibitory concentration against Escherichia coli methionine aminopeptidase 1.

The target of test [2] is T2, Methionine aminopeptidase 1 (Saccharomyces cerevisiae S288c, UniProt Q01662).
T2 sequence (Q01662 whole entry): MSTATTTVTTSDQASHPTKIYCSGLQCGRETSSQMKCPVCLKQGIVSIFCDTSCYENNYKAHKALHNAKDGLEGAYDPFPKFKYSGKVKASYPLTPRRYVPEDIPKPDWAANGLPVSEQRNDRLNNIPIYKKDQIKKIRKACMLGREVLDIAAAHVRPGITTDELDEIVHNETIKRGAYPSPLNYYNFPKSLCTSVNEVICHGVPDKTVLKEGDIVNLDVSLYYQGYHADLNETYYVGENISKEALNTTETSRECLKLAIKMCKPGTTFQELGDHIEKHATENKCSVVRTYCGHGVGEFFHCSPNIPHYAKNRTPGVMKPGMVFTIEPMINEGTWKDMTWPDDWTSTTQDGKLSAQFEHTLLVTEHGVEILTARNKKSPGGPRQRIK
Put plainly: Inhibitory concentration against Saccharomyces cerevisiae methionine aminopeptidase 1.

The pIC50 is the IC50 on a negative log10 scale, so that one unit is a factor of ten. Higher therefore signals a small IC50. Take `CC(C)(C)OC(=O)Nc1ccc(C(=O)Nc2nccs2)nc1`: the pIC50 is 4.89 in test [1] and 4.20 in test [2].

As to `O=C(Nc1nccs1)c1cc([N+](=O)[O-])ccn1`, the pIC50 was 5.35 in test [1] and < 4.00 in test [2].

`CC(=O)OCc1cccc(C(=O)Nc2nccs2)n1`: the pIC50 in test [1] was < 4.00.

In the case of `COc1ccnc(C(=O)Nc2nccs2)c1`, the pIC50 in test [2] was < 4.00.

On to `O=C(Nc1nccs1)c1cc(OCc2ccccc2)ccn1`, for which the pIC50 in test [1] and in test [2] was < 4.00 each time.

With `CCCCc1ccc(C(=O)Nc2nccs2)nc1`, the negative-log IC50 (pIC50) in test [1] and in test [2] was < 4.00 in each case.

Turning to `CC(=O)Nc1ccnc(C(=O)Nc2nccs2)c1`, the pIC50 is 5.70 in test [1] and 4.77 in test [2].

Take `O=C(Nc1nccs1)c1cc(NCc2ccccc2)ccn1`: the pIC50 in test [1] is 5.63; in test [2], < 4.00.

As to `O=C(Nc1nccs1)c1cccc(C(=O)Nc2nccs2)n1`, the negative logarithm of the IC50 (pIC50) in test [1] and in test [2] was < 4.00 throughout.

As to `Nc1ccnc(C(=O)Nc2nccs2)c1`, the negative-log IC50 (pIC50) is 5.17 in test [1] and < 4.00 in test [2].

For the compound `Nc1ccc(C(=O)Nc2nccs2)nc1`, the negative-log IC50 (pIC50) in test [1] is 5.68; in test [2], 5.61.

For the compound `O=C(Nc1nccs1)c1ncccc1OCc1ccccc1`, the figures for the pIC50 in test [1] and in test [2] were 5.85 and 6.11, respectively.

For the compound `CC(C)=CCc1ccc(C(=O)Nc2nccs2)nc1`, the pIC50 in test [1] and in test [2] was < 4.00 each time.

On to `O=C(Nc1nccs1)c1cc(Cl)ccn1`, for which the pIC50 in test [1] and in test [2] was < 4.00 in each case.
